The values that follow come from patent EP0424901A1, “Dihydropyridine derivatives and pharmaceutical compositions” (THE GREEN CROSS CORPORATION, priority 1989, dated 1991).

SMILES strings stand for the structures. Where a name gives a salt, the structure may show the parent alone. Read-outs that look alike come from different tables or passages of the source.

This experiment concerns male Wistar rats. Description: Blood pressure in anesthetized rats after intravenous bolus administration. It is filed as in vivo. The settings on record: tail vein bolus; for ED30: Rattus norvegicus, iv; for DBP % change: diastolic blood pressure relative to that before administration (=100%); for DBP % change / SBP % change: mean ± SE, n=4; for SBP % change: systolic blood pressure relative to that before administration (=100%). How it is done: The subject rats anesthetized with pentobarbital-Na (50 mg/kg, i.p.) were fixed at the dorsal position, and the blood pressure was successively recorded on a polygraph via polyethylene catheter inserted in left common carotid artery and piezoelectric transducer. The drug was bolus- administered at a dose of 1 ml/kg through a wing needle dwelled in tail vein.
As the subject animal, male Wistar rats (about 300 g body weight, 4 rats per group) were used.
The test drug was prepared by dissolving 10 mg thereof in 0.3 ml of ethanol and 0.1 ml of Tween 80 and diluting with saline.

Setting [1] is: estimated dose necessary for 30% reduction of diastolic blood pressure, read-out: DBP ED30.
[2] abbreviates: estimated dose necessary for 30% reduction of systolic blood pressure, read-out: SBP ED30.

`COC(=O)C1=C(C)NC(C)=C(C(=O)OCCc2ccc(N3CCN(C(c4ccccc4)c4ccccc4)CC3)cc2)C1c1cccc([N+](=O)[O-])c1` (racemic) [compound 3, reference compound]: the ED30 under setting [1] is 0.046 mg/kg and the ED30 under setting [2] is 0.63 mg/kg. This compound also gave a DBP % change (dose 30 µg/kg) of 75±5%, a DBP % change (dose 100 µg/kg) of 61±2% and a DBP % change (dose 300 µg/kg) of 53±3%. In addition, the SBP % change (dose 30 µg/kg) was found to be 79±1%, the SBP % change (dose 100 µg/kg) stood at 76±4% and the SBP % change (dose 300 µg/kg) was 72±3%.
Under “dose 100 µg/kg”, `COC(=O)C1=C(C)NC(C)=C(C(=O)OCCc2ccc(N3CCN(C(c4ccccc4)c4ccccc4)CC3)cc2)[C@@H]1c1cccc([N+](=O)[O-])c1` [(R)-(-)-compound 3, (R)-(-)-4-(4-benzhydrylpiperadino)phenetyl methyl 1,4-dihydro-2,6-dimethyl-4-(3-nitrophenyl)-3,5-pyridinedicarboxylate hydrochloride] came in with a DBP % change of 94±1% and an SBP % change of 93±2%. For the setting “dose 1000 µg/kg”, the DBP % change turned out to be 91±2% and the SBP % change worked out at 93±3%.
`COC(=O)C1=C(C)NC(C)=C(C(=O)OCCc2ccc(N3CCN(C(c4ccccc4)c4ccccc4)CC3)cc2)[C@H]1c1cccc([N+](=O)[O-])c1` [(S)-(+)-compound 3, (S)-(+)-4-(4-benzhydrylpiperadino)phenetyl methyl 1,4-dihydro-2,6-dimethyl-4-(3-nitrophenyl)-3,5-pyridinedicarboxylate hydrochloride]: the ED30 runs as follows: under setting [1], 0.037 mg/kg; under setting [2], 0.16 mg/kg. Besides, the DBP % change (dose 10 µg/kg) is 89±1%, the DBP % change (dose 30 µg/kg) is 74±2% and the DBP % change (dose 100 µg/kg) is recorded as 55±4%. Moreover, the SBP % change is listed as 86±3% (dose 10 µg/kg), 86±3% (dose 30 µg/kg) and 71±5% (dose 100 µg/kg).
